The results in this text go back to US20220378042A1, “Herbicide combinations comprising glufosinate and oxyfluorfen” (BASF SE, priority 2020, published 2022).

Assay [1] concerns Chenopodium album. As to the kind of experiment: greenhouse post-emergence herbicidal activity on Chenopodium album. The assay is classed as in vivo. The following applies: for inhibition at 327 g/ha: read-out: Solo Glufosinate % activity; for inhibition at 10.2 g/ha: 10.2 g ai/ha, scale 0-100% damage vs untreated, read-out: Solo Oxyfluorfen % activity. An excerpt: (§1) For the post-emergence treatment, the test plants were first grown to 3 to 4 inch (7.6 to 10.2 cm) tall, and only then treated. Here, the herbicidal compositions were suspended or emulsified in water as distribution medium and sprayed using finely distributing nozzles.
(§2) The herbicide compounds applied in the examples were used as commercially available formulations which have been diluted with deionized water to a suitable concentration.
(§3) Oxyfluorfen (commercial product name: Goal 2XL) was used as an emulsifiable concentrate having an active ingredient concentration of 240 g/l. Glufosinate (commercial product name: Liberty) was used as an aqueous soluble liquid of glufosinate ammonium having an active ingredient concentration of 280 g/l. Adjuvants of ammonium sulfate (AMS) and non-ionic surfactant (NIS) were added in all treatments. AMS and NIS were AMS Liquid and Induce at rates of 1680 g/ha and 0.25% (v/v), respectively.
(§4) The test period extended over 28 days after treatment (DAT). During this time, the plants were tended and their response to the individual treatments was evaluated.
(§5) The evaluation for the damage caused by the chemical compositions was carried out using a scale from 0 to 100%, compared to the untreated control plants. Here, 0 means no damage and 100 means complete destruction of the plants.
(§6) The plants used in the greenhouse experiments belonged to the following species:
(§7) E=X+Y−(X·Y/100) • where X=effect in percent using Oxyfluorfen at an application rate a; • Y=effect in percent using glufosinate at application rate b; • E=expected effect (in %) of Oxyfluorfen plus glufosinate at application rates a+b.
(§8) The value E corresponds to the effect (plant damage or injury) which is to be expected if the activity of the individual compounds is just additive. If the observed effect is higher than the value E calculated according to Colby, a synergistic effect is present.

Assay [2] concerns Echinochloa crus-galli. The assay can be described thus: greenhouse post-emergence herbicidal activity on Echinochloa crus-galli. The format is in vivo. The note with it: for inhibition at 327 g/ha: read-out: Solo Glufosinate % activity; for inhibition at 10.2 g/ha: 10.2 g ai/ha, scale 0-100% damage vs untreated, read-out: Solo Oxyfluorfen % activity.
Text: as §1, §2, §3, §4, §5, §6, §7, §8

Read-outs that look alike come from different tables or passages of the source.

As for `CP(=O)(O)CCC(N)C(=O)O` (racemic) [Glufosinate, (2RS)-2-amino-4-[hydroxy(methyl)phosphinoyl]butyric acid], the inhibition at 327 g/ha in assay [1] (168 h) was 81%; in assay [1] (336 h), 75%; in assay [1] (504 h), 78%; in assay [2] (168 h) it was 84%; in assay [2] (336 h), 25%; in assay [2] (504 h) it was 20%.

For `CCOc1cc(Oc2ccc(C(F)(F)F)cc2Cl)ccc1[N+](=O)[O-]` [Oxyfluorfen], the inhibition at 10.2 g/ha in assay [1] (168 h, 7 DAT) stood at 33%; in assay [1] (336 h, 14 DAT) it was 25%; in assay [1] (504 h, 21 DAT) it was 30%; in assay [2] (168 h, 7 DAT), 28%; in assay [2] (336 h, 14 DAT), 15%; in assay [2] (504 h, 21 DAT), 20%.
